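Interpolation was linear, between the two tested concentrations surrounding the appropriate level; five concentrations were tested over 48 hours in 96-well plates. Definition used: TGI = concentration required for complete inhibition of growth.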
Assays:
Assay in all cases: growth of human tumour cells (NCI), 48 h
BT-549 breast = test system: BT-549 breast
NCI-H522 lung = test system: NCI-H522 lung
NCI-H226 lung = test system: NCI-H226 lung
SNB-19 CNS = test system: SNB-19 CNS
HOP-62 NSCLC = test system: HOP-62 NSCLC
SK-MEL-28 melanoma = test system: SK-MEL-28 melanoma
M14 melanoma = test system: M14 melanoma
COLO 205 colon = test system: COLO 205 colon
OVCAR-5 ovarian = test system: OVCAR-5 ovarian
NCI-H23 lung = test system: NCI-H23 lung
HOP-92 NSCLC = test system: HOP-92 NSCLC

## O=C1c2cc(Cl)ccc2-n2cnnc2C2CSCN12 (configuration not stated)
BT-549 breast
  TGI: > 100 µM
NCI-H522 lung
  TGI: > 100 µM
NCI-H226 lung
  TGI: > 100 µM
SNB-19 CNS
  TGI: > 100 µM
HOP-62 NSCLC
  TGI: > 100 µM
SK-MEL-28 melanoma
  TGI: > 100 µM
M14 melanoma
  TGI: > 100 µM
COLO 205 colon
  TGI: > 100 µM
OVCAR-5 ovarian
  TGI: > 100 µM

## Cn1cc(C(=O)NCCC(=N)N)cc1NC(=O)C1=[N+](C)C=C(NC(=O)c2cccc(C(=O)NC3=CC(C(=O)Nc4cc(C(=O)NCCC(=N)N)cn4C)=[N+](C)C3)c2)C1
NCI-H522 lung
  TGI: > 100 µM
NCI-H226 lung
  TGI: > 100 µM
SNB-19 CNS
  TGI: > 100 µM
NCI-H23 lung
  TGI: > 100 µM
HOP-62 NSCLC
  TGI: > 100 µM
SK-MEL-28 melanoma
  TGI: > 100 µM
M14 melanoma
  TGI: > 100 µM
COLO 205 colon
  TGI: > 100 µM
HOP-92 NSCLC
  TGI: > 100 µM

## CN(C)Nc1cc(=O)[nH]c(=O)[nH]1
BT-549 breast
  TGI: > 100 µM
NCI-H226 lung
  TGI: > 100 µM
SNB-19 CNS
  TGI: > 100 µM
HOP-62 NSCLC
  TGI: > 100 µM
SK-MEL-28 melanoma
  TGI: > 100 µM
M14 melanoma
  TGI: > 100 µM
COLO 205 colon
  TGI: > 100 µM
OVCAR-5 ovarian
  TGI: > 100 µM
HOP-92 NSCLC
  TGI: > 100 µM

## Oc1ccccc1/C=C/c1csnn1
NCI-H522 lung
  TGI: > 100 µM
NCI-H226 lung
  TGI: > 100 µM
SNB-19 CNS
  TGI: > 100 µM
NCI-H23 lung
  TGI: > 100 µM
HOP-62 NSCLC
  TGI: > 100 µM
SK-MEL-28 melanoma
  TGI: > 100 µM
M14 melanoma
  TGI: > 100 µM
COLO 205 colon
  TGI: > 100 µM
OVCAR-5 ovarian
  TGI: > 100 µM
HOP-92 NSCLC
  TGI: > 100 µM

## C=Cc1ccc(C)[n+](C[Si](C)(C)O[Si](C)(C)C)c1
NCI-H522 lung
  TGI: > 100 µM
NCI-H226 lung
  TGI: > 100 µM
SNB-19 CNS
  TGI: > 100 µM
NCI-H23 lung
  TGI: > 100 µM
HOP-62 NSCLC
  TGI: > 100 µM
SK-MEL-28 melanoma
  TGI: > 100 µM
M14 melanoma
  TGI: > 100 µM
COLO 205 colon
  TGI: > 100 µM
OVCAR-5 ovarian
  TGI: > 100 µM

## COC(=O)[C@@H]1CN(C(C)=O)C(=O)N1
NCI-H522 lung
  TGI: > 100 µM
NCI-H226 lung
  TGI: > 100 µM
SNB-19 CNS
  TGI: > 100 µM
NCI-H23 lung
  TGI: > 100 µM
HOP-62 NSCLC
  TGI: > 100 µM
SK-MEL-28 melanoma
  TGI: > 100 µM
M14 melanoma
  TGI: > 100 µM
COLO 205 colon
  TGI: > 100 µM
OVCAR-5 ovarian
  TGI: > 100 µM
HOP-92 NSCLC
  TGI: > 100 µM

## COC1(OC)c2no[n+]([O-])c2CCC1O (configuration not stated)
NCI-H522 lung
  TGI: > 100 µM
NCI-H226 lung
  TGI: > 100 µM
SNB-19 CNS
  TGI: > 100 µM
NCI-H23 lung
  TGI: > 100 µM
HOP-62 NSCLC
  TGI: > 100 µM
SK-MEL-28 melanoma
  TGI: > 100 µM
M14 melanoma
  TGI: > 100 µM
COLO 205 colon
  TGI: > 100 µM
OVCAR-5 ovarian
  TGI: > 100 µM
HOP-92 NSCLC
  TGI: > 100 µM

## CCCCNc1nc(C#N)c(N)s1
NCI-H522 lung
  TGI: > 100 µM
NCI-H226 lung
  TGI: > 100 µM
SNB-19 CNS
  TGI: > 100 µM
NCI-H23 lung
  TGI: > 100 µM
HOP-62 NSCLC
  TGI: > 100 µM
SK-MEL-28 melanoma
  TGI: > 100 µM
M14 melanoma
  TGI: > 100 µM
COLO 205 colon
  TGI: > 100 µM
OVCAR-5 ovarian
  TGI: > 100 µM
HOP-92 NSCLC
  TGI: > 100 µM

## CCSc1[nH]c(NC(=S)NC(=O)c2ccccc2Cl)c(C(N)=O)c1C(N)=O
NCI-H23 lung
  TGI: > 10 µM
HOP-62 NSCLC
  TGI: > 10 µM
SK-MEL-28 melanoma
  TGI: > 10 µM
M14 melanoma
  TGI: > 10 µM
COLO 205 colon
  TGI: > 10 µM
HOP-92 NSCLC
  TGI: > 10 µM

## O=C(c1cccs1)N(C(=S)N1CCN(c2ccccn2)CC1)c1ccccc1
NCI-H522 lung
  TGI: > 100 µM
NCI-H226 lung
  TGI: 84.4 µM
SNB-19 CNS
  TGI: > 100 µM
NCI-H23 lung
  TGI: > 100 µM
HOP-62 NSCLC
  TGI: > 100 µM
SK-MEL-28 melanoma
  TGI: > 100 µM
M14 melanoma
  TGI: > 100 µM
COLO 205 colon
  TGI: > 100 µM
OVCAR-5 ovarian
  TGI: > 100 µM
HOP-92 NSCLC
  TGI: > 100 µM

## Cc1csc2[n+]1C(=O)/C(=C\c1ccc([N+](=O)[O-])cc1)S2
NCI-H226 lung
  TGI: 26.9 µM
SNB-19 CNS
  TGI: 87.3 µM
NCI-H23 lung
  TGI: 48.6 µM
HOP-62 NSCLC
  TGI: 82.2 µM
SK-MEL-28 melanoma
  TGI: > 100 µM
M14 melanoma
  TGI: > 100 µM
COLO 205 colon
  TGI: 39.9 µM
OVCAR-5 ovarian
  TGI: > 100 µM
HOP-92 NSCLC
  TGI: 47.7 µM

## O=c1[nH]c2cc([N+](=O)[O-])ccc2nc1/C(=N/Nc1ccccc1)C(O)c1ccccc1Cl (configuration not stated)
NCI-H522 lung
  TGI: > 100 µM
NCI-H226 lung
  TGI: > 100 µM
SNB-19 CNS
  TGI: > 100 µM
NCI-H23 lung
  TGI: > 100 µM
HOP-62 NSCLC
  TGI: > 100 µM
SK-MEL-28 melanoma
  TGI: > 100 µM
M14 melanoma
  TGI: > 100 µM
COLO 205 colon
  TGI: > 100 µM
OVCAR-5 ovarian
  TGI: > 100 µM
HOP-92 NSCLC
  TGI: > 100 µM

## CC(=O)OC1COC(n2c(O)c(N=NC(N)=S)c3cc(Br)ccc32)C(OC(C)=O)C1OC(C)=O (configuration not stated)
NCI-H522 lung
  TGI: > 100 µM
NCI-H226 lung
  TGI: > 100 µM
SNB-19 CNS
  TGI: > 100 µM
NCI-H23 lung
  TGI: > 100 µM
HOP-62 NSCLC
  TGI: > 100 µM
SK-MEL-28 melanoma
  TGI: > 100 µM
M14 melanoma
  TGI: > 100 µM
COLO 205 colon
  TGI: > 100 µM
OVCAR-5 ovarian
  TGI: > 100 µM
HOP-92 NSCLC
  TGI: > 100 µM

## O=C1NC2ON=C(c3ccccc3)C2C2ON=C(c3ccccc3)N12 (configuration not stated)
BT-549 breast
  TGI: > 100 µM
NCI-H522 lung
  TGI: > 100 µM
NCI-H226 lung
  TGI: > 100 µM
SNB-19 CNS
  TGI: > 100 µM
NCI-H23 lung
  TGI: > 100 µM
HOP-62 NSCLC
  TGI: > 100 µM
M14 melanoma
  TGI: > 100 µM
COLO 205 colon
  TGI: > 100 µM
OVCAR-5 ovarian
  TGI: > 100 µM

## CC1C2(C)OC(=N)C(C#N)(C(c3ccccc3)O2)C1(C#N)C#N (configuration not stated)
BT-549 breast
  TGI: > 100 µM
NCI-H226 lung
  TGI: > 100 µM
SNB-19 CNS
  TGI: > 100 µM
NCI-H23 lung
  TGI: 78.2 µM
M14 melanoma
  TGI: 28 µM
COLO 205 colon
  TGI: 30.4 µM
OVCAR-5 ovarian
  TGI: 69.5 µM
HOP-92 NSCLC
  TGI: 29.7 µM

## C=CCNC1=C2C[C@@H](C)C[C@@H](OC)[C@H](OC(=O)CCN)[C@H](C)/C=C(\C)[C@@H](OC(N)=O)[C@H](OC)/C=C\C=C(/C)C(=O)NC(=CC1=O)C2=O
BT-549 breast
  TGI: 21.2 µM
NCI-H522 lung
  TGI: 20.2 µM
SNB-19 CNS
  TGI: 20.9 µM
NCI-H23 lung
  TGI: 13 µM
HOP-62 NSCLC
  TGI: 17.5 µM
SK-MEL-28 melanoma
  TGI: 44.2 µM
M14 melanoma
  TGI: 17.3 µM
COLO 205 colon
  TGI: 10.1 µM
OVCAR-5 ovarian
  TGI: 23.3 µM
HOP-92 NSCLC
  TGI: 16.9 µM

## COC(=O)N/N=C(\Cc1ccccc1)CN(C)C
NCI-H522 lung
  TGI: > 100 µM
NCI-H23 lung
  TGI: > 100 µM
HOP-62 NSCLC
  TGI: > 100 µM
SK-MEL-28 melanoma
  TGI: > 100 µM
M14 melanoma
  TGI: > 100 µM
COLO 205 colon
  TGI: > 100 µM
OVCAR-5 ovarian
  TGI: > 100 µM
HOP-92 NSCLC
  TGI: > 100 µM

## O=C(CSc1nnc(-c2ccc(N=Cc3ccc(Cl)cc3)cc2)o1)Nc1ccccc1[N+](=O)[O-]
NCI-H522 lung
  TGI: > 100 µM
NCI-H226 lung
  TGI: > 100 µM
SNB-19 CNS
  TGI: > 100 µM
NCI-H23 lung
  TGI: > 100 µM
HOP-62 NSCLC
  TGI: > 100 µM
SK-MEL-28 melanoma
  TGI: > 100 µM
M14 melanoma
  TGI: > 100 µM
COLO 205 colon
  TGI: > 100 µM

## COC(=O)/C=C(/C)n1nc2ccccc2n1
BT-549 breast
  TGI: > 100 µM
NCI-H522 lung
  TGI: > 100 µM
NCI-H226 lung
  TGI: > 100 µM
SNB-19 CNS
  TGI: > 100 µM
NCI-H23 lung
  TGI: > 100 µM
HOP-62 NSCLC
  TGI: > 100 µM
SK-MEL-28 melanoma
  TGI: > 100 µM
M14 melanoma
  TGI: > 100 µM
COLO 205 colon
  TGI: > 100 µM
OVCAR-5 ovarian
  TGI: > 100 µM

## C/C(=N\NS(=O)(=O)c1ccc(C)cc1)C(CN1CCCCC1)C(c1ccccc1)c1c(O)c2ccccc2oc1=O (configuration not stated)
NCI-H522 lung
  TGI: > 100 µM
NCI-H226 lung
  TGI: > 100 µM
SNB-19 CNS
  TGI: > 100 µM
NCI-H23 lung
  TGI: > 100 µM
HOP-62 NSCLC
  TGI: > 100 µM
M14 melanoma
  TGI: > 100 µM
COLO 205 colon
  TGI: > 100 µM
OVCAR-5 ovarian
  TGI: > 100 µM
HOP-92 NSCLC
  TGI: > 100 µM

## O=C(ON=C1c2ccccc2C(Br)C(Br)c2ccccc21)c1cc([N+](=O)[O-])cc([N+](=O)[O-])c1 (configuration not stated)
NCI-H522 lung
  TGI: 14.3 µM
NCI-H226 lung
  TGI: 48.6 µM
SNB-19 CNS
  TGI: 56.8 µM
NCI-H23 lung
  TGI: 40.1 µM
HOP-62 NSCLC
  TGI: 34.3 µM
SK-MEL-28 melanoma
  TGI: 34.6 µM
M14 melanoma
  TGI: 33.6 µM
COLO 205 colon
  TGI: 40 µM
OVCAR-5 ovarian
  TGI: 43.8 µM
HOP-92 NSCLC
  TGI: 39.8 µM

## NC(=O)N/N=C(\CC1OC(=O)c2ccccc21)c1ccco1 (configuration not stated)
NCI-H522 lung
  TGI: > 100 µM
NCI-H226 lung
  TGI: > 100 µM
SNB-19 CNS
  TGI: > 100 µM
NCI-H23 lung
  TGI: > 100 µM
SK-MEL-28 melanoma
  TGI: > 100 µM
M14 melanoma
  TGI: > 100 µM
COLO 205 colon
  TGI: > 100 µM
OVCAR-5 ovarian
  TGI: > 100 µM
HOP-92 NSCLC
  TGI: > 100 µM
